From ChEMBL document CHEMBL4507285, “Data for DCP probe MRL-SYKi” (2021)

Key:
[1] = target: Serine/threonine-protein kinase 3 (Homo sapiens) (UniProt Q13188); settings: Compound concentration 100.0 nM
[2] = target: Casein kinase II subunit alpha (Homo sapiens) (UniProt P68400); settings: Compound concentration 100.0 nM
[3] = target: Phosphatidylinositol 4-phosphate 5-kinase type-1 gamma (Homo sapiens) (UniProt O60331); settings: Compound concentration 100.0 nM
[4] = test system: Phosphatidylinositol 4,5-bisphosphate 3-kinase catalytic subunit alpha isoform (Homo sapiens), P42336 [H1047Y]; settings: Compound concentration 100.0 nM
[5] = target: Sigma intracellular receptor 2 (Homo sapiens) (UniProt Q5BJF2); settings: Compound concentration 10.0 uM
[6] = target: Activin receptor type-1 (Homo sapiens) (UniProt Q04771); settings: Compound concentration 100.0 nM
[7] = target: Focal adhesion kinase 1 (Homo sapiens) (UniProt Q05397); settings: Compound concentration 100.0 nM
[8] = target: Mitogen-activated protein kinase kinase kinase kinase 2 (Homo sapiens) (UniProt Q12851); settings: Compound concentration 100.0 nM
[9] = test system: Receptor-type tyrosine-protein kinase FLT3 (Homo sapiens), P36888 [R834Q]; settings: Compound concentration 100.0 nM
[10] = target: Homeodomain-interacting protein kinase 3 (Homo sapiens) (UniProt Q9H422); settings: Compound concentration 100.0 nM
[11] = target: Serine/threonine-protein kinase LATS1 (Homo sapiens) (UniProt O95835); settings: Compound concentration 100.0 nM
[12] = test system: Tyrosine-protein kinase ABL1 (Homo sapiens), P00519 [H396P]; settings: Compound concentration 100.0 nM
[13] = target: Serine/threonine-protein kinase 32A (Homo sapiens) (UniProt Q8WU08); settings: Compound concentration 100.0 nM
[14] = target: Serine/threonine-protein kinase VRK2 (Homo sapiens) (UniProt Q86Y07); settings: Compound concentration 100.0 nM
[15] = target: Serine/threonine-protein kinase D3 (Homo sapiens) (UniProt O94806); settings: Compound concentration 100.0 nM
[16] = target: Phosphatidylinositol 4,5-bisphosphate 3-kinase catalytic subunit beta isoform (Homo sapiens) (UniProt P42338); settings: Compound concentration 100.0 nM
[17] = test system: Phosphatidylinositol 4,5-bisphosphate 3-kinase catalytic subunit alpha isoform (Homo sapiens), P42336 [M1043I]; settings: Compound concentration 100.0 nM
[18] = target: 5-hydroxytryptamine receptor 5A (Homo sapiens) (UniProt P47898); settings: Compound concentration 10.0 uM
[19] = target: Serine/threonine-protein kinase B-raf (Homo sapiens) (UniProt P15056); settings: Compound concentration 100.0 nM
[20] = target: Non-receptor tyrosine-protein kinase TNK1 (Homo sapiens) (UniProt Q13470); settings: Compound concentration 100.0 nM
[21] = target: MAP kinase-activated protein kinase 2 (Homo sapiens) (UniProt P49137); settings: Compound concentration 100.0 nM
[22] = target: Tyrosine-protein kinase JAK3 (Homo sapiens) (UniProt P52333); settings: Compound concentration 100.0 nM
[23] = target: G protein-coupled receptor kinase 3 (Homo sapiens) (UniProt P35626); settings: Compound concentration 100.0 nM
[24] = target: Serine/threonine-protein kinase 35 (Homo sapiens) (UniProt Q8TDR2); settings: Compound concentration 100.0 nM
[25] = test system: Tyrosine-protein kinase ABL1 (Homo sapiens), P00519 [T315I]; settings: Compound concentration 100.0 nM
[26] = target: Serine/threonine-protein kinase 26 (Homo sapiens) (UniProt Q9P289); settings: Compound concentration 100.0 nM
[27] = target: 5-hydroxytryptamine receptor 2B (Homo sapiens, UniProt P41595); settings: Compound concentration 10.0 uM
[28] = target: Cyclin-G-associated kinase (Homo sapiens) (UniProt O14976); settings: Compound concentration 100.0 nM
[29] = target: Tyrosine-protein kinase CSK (Homo sapiens) (UniProt P41240); settings: Compound concentration 100.0 nM
[30] = target: Receptor-type tyrosine-protein kinase FLT3 (Homo sapiens) (UniProt P36888); settings: Compound concentration 100.0 nM
[31] = target: Calcium/calmodulin-dependent protein kinase kinase 1 (Homo sapiens) (UniProt Q8N5S9); settings: Compound concentration 100.0 nM
[32] = target: Serine/threonine-protein kinase SIK3 (Homo sapiens) (UniProt Q9Y2K2); settings: Compound concentration 100.0 nM
[33] = target: Interleukin-1 receptor-associated kinase 3 (Homo sapiens) (UniProt Q9Y616); settings: Compound concentration 100.0 nM
[34] = target: SNF-related serine/threonine-protein kinase (Homo sapiens) (UniProt Q9NRH2); settings: Compound concentration 100.0 nM
[35] = target: 5-hydroxytryptamine receptor 2A (Homo sapiens) (UniProt P28223); settings: Compound concentration 10.0 uM
[36] = target: Tyrosine-protein kinase Blk (Homo sapiens) (UniProt P51451); settings: Compound concentration 100.0 nM
[37] = target: Serine/threonine-protein kinase TAO2 (Homo sapiens) (UniProt Q9UL54); settings: Compound concentration 100.0 nM
[38] = target: Phosphatidylinositol 4-phosphate 3-kinase C2 domain-containing subunit beta (Homo sapiens) (UniProt O00750); settings: Compound concentration 100.0 nM
[39] = target: Myosin light chain kinase family member 4 (Homo sapiens) (UniProt Q86YV6); settings: Compound concentration 100.0 nM
[40] = target: Alpha-1B adrenergic receptor (Homo sapiens) (UniProt P35368); settings: Compound concentration 10.0 uM
[41] = target: Serine/threonine-protein kinase Nek11 (Homo sapiens) (UniProt Q8NG66); settings: Compound concentration 100.0 nM
[42] = target: Mitogen-activated protein kinase kinase kinase kinase 4 (Homo sapiens) (UniProt O95819); settings: Compound concentration 100.0 nM
[43] = target: Tyrosine-protein kinase Yes (Homo sapiens) (UniProt P07947); settings: Compound concentration 100.0 nM
[44] = target: Mitogen-activated protein kinase kinase kinase 5 (Homo sapiens) (UniProt Q99683); settings: Compound concentration 100.0 nM
[45] = target: Myotonin-protein kinase (Homo sapiens) (UniProt Q09013); settings: Compound concentration 100.0 nM

Chain of Serine/threonine-protein kinase 26 (Homo sapiens) (Q9P289 2-416 limits assumed): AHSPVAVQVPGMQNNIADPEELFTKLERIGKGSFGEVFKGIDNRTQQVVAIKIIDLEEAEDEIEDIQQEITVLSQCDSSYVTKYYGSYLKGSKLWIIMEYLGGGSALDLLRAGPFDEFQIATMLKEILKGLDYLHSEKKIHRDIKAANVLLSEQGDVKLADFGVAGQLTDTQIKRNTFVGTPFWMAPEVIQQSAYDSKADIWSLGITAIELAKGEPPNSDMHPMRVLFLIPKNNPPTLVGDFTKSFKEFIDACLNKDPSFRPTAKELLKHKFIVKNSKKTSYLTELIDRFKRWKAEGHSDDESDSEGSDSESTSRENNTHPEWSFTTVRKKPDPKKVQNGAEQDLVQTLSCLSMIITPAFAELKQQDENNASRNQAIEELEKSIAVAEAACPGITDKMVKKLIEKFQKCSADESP
Chain of Phosphatidylinositol 4,5-bisphosphate 3-kinase catalytic subunit alpha isoform (Homo sapiens), P42336 [H1047Y] (P42336 whole entry H1047Y, canonical isoform): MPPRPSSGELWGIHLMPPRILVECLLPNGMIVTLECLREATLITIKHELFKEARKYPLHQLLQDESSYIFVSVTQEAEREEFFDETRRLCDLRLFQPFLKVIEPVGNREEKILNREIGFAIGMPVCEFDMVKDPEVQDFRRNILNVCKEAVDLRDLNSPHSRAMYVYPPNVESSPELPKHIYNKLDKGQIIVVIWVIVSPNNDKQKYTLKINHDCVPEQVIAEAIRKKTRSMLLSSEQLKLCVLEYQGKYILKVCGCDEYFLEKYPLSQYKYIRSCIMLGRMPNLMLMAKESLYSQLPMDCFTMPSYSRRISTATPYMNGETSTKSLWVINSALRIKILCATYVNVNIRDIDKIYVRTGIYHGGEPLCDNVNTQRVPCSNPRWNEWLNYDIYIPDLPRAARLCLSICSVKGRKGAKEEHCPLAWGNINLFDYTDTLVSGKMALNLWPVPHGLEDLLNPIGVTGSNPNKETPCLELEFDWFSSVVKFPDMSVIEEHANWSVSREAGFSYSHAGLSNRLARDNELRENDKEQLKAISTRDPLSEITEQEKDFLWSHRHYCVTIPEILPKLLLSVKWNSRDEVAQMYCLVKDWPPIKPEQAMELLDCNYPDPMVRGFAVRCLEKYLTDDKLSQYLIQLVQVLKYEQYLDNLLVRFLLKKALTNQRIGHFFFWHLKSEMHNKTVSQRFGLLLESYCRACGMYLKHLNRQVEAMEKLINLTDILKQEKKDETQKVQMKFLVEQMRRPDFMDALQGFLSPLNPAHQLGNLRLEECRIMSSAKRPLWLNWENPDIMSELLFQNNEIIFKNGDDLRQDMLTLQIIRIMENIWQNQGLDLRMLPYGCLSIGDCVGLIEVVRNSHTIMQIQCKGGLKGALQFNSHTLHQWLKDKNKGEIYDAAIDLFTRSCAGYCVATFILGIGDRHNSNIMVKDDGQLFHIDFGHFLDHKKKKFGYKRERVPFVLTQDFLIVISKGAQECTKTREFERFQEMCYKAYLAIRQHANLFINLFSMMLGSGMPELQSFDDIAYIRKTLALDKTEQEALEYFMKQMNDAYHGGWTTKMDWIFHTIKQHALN
Chain of Tyrosine-protein kinase CSK (Homo sapiens) (P41240 2-450 limits assumed): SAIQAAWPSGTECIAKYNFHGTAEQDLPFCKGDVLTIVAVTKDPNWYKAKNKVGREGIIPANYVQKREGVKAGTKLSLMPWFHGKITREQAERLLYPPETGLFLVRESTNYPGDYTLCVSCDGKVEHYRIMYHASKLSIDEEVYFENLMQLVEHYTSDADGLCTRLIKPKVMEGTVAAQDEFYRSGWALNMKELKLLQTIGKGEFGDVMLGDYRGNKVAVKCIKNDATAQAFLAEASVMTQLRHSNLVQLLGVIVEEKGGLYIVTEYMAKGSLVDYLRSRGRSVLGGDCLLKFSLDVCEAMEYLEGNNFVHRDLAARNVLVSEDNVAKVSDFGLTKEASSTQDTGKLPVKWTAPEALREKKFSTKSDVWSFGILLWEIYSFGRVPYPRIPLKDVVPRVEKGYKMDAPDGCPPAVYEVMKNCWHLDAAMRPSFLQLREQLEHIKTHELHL
Chain of Serine/threonine-protein kinase 35 (Homo sapiens) (Q8TDR2 whole entry): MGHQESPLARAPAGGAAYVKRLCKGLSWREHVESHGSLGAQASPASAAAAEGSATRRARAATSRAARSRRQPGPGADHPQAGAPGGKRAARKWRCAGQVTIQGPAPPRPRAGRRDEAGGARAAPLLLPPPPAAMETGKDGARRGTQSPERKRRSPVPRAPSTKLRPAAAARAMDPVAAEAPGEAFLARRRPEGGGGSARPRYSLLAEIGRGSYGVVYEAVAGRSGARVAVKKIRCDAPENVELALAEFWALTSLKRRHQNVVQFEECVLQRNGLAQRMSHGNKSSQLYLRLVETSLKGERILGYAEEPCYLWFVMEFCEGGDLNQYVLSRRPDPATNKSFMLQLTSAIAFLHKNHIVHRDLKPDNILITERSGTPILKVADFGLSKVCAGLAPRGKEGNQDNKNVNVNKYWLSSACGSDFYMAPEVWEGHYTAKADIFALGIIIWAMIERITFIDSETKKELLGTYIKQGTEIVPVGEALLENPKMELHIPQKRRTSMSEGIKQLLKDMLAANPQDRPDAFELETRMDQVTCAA
Chain of Serine/threonine-protein kinase D3 (Homo sapiens) (O94806 whole entry, canonical isoform): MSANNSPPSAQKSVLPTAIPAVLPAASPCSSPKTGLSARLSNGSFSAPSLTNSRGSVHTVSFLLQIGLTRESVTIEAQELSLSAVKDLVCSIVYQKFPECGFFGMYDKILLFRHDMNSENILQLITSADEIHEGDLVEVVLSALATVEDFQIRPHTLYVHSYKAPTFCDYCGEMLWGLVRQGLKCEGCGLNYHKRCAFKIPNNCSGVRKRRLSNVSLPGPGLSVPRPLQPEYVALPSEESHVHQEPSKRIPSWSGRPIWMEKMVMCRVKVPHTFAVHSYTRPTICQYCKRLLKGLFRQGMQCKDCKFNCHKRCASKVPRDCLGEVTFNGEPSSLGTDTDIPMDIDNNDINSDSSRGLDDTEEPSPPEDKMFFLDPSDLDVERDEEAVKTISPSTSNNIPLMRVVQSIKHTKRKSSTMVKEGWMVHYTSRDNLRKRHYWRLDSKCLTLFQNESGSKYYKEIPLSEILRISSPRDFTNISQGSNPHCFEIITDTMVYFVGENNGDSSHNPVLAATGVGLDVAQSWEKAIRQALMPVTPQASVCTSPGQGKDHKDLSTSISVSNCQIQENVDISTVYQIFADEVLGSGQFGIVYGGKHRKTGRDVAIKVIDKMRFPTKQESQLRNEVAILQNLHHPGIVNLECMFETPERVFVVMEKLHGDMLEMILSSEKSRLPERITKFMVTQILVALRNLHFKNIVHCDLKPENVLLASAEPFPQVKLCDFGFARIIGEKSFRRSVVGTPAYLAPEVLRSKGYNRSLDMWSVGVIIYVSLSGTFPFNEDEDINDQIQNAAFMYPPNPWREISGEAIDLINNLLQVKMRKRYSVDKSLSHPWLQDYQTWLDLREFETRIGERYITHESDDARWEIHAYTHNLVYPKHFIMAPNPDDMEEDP
Chain of Serine/threonine-protein kinase Nek11 (Homo sapiens) (Q8NG66 whole entry): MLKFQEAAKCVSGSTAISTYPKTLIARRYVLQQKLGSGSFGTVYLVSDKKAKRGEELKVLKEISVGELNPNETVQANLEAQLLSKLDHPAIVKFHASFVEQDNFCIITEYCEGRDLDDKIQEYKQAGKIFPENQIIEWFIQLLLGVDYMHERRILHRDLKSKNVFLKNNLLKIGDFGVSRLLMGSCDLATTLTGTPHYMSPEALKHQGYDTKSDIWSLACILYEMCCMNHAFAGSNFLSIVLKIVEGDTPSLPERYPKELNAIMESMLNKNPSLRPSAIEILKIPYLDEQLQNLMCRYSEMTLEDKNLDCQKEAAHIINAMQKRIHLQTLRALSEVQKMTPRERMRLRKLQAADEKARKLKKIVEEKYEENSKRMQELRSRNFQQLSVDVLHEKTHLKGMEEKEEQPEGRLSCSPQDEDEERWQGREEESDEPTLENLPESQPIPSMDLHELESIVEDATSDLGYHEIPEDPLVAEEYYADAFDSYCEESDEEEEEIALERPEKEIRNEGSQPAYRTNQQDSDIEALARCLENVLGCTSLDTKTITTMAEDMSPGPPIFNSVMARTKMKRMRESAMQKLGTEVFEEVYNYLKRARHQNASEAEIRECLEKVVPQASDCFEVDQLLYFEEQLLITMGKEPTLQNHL
Chain of Non-receptor tyrosine-protein kinase TNK1 (Homo sapiens) (Q13470 whole entry): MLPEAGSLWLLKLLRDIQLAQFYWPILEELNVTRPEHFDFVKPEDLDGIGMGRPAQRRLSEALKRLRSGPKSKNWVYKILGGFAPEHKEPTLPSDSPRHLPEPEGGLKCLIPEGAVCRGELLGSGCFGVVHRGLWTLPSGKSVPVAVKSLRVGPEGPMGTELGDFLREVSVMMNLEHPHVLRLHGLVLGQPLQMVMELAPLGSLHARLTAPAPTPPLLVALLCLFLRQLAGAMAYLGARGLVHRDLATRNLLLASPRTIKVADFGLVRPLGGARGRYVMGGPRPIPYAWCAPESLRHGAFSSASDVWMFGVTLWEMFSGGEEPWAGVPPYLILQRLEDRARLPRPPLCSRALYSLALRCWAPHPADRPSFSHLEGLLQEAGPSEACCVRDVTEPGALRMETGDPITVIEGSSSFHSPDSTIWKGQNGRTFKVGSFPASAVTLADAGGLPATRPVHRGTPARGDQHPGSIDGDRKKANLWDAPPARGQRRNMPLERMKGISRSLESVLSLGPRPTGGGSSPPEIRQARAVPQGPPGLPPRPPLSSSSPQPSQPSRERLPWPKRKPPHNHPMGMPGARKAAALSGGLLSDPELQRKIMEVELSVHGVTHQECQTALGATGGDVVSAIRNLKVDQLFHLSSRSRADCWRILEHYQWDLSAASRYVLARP
Chain of Sigma intracellular receptor 2 (Homo sapiens) (Q5BJF2 whole entry): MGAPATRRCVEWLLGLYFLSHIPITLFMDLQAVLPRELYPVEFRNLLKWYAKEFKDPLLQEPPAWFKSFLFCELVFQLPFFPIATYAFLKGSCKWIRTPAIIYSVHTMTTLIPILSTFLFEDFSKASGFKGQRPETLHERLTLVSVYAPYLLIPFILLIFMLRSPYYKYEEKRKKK

Cc1ccc(-c2cnc([C@@]3(O)CC[C@H](C(=O)O)C(C)(C)C3)s2)cc1Nc1cccc(C(F)(F)F)n1 [MRL-SYKi-NC]
residual activity [1]: 98.1% | residual activity [2]: 100% | residual activity [3]: 100% | residual activity [4]: 81.3% | inhibition [5]: 27.4% | residual activity [6]: 100% | residual activity [7]: 90.2% | residual activity [8]: 100% | residual activity [9]: 70.5% | residual activity [10]: 88.3% | residual activity [11]: 100% | residual activity [12]: 95.4% | residual activity [13]: 89.7% | residual activity [14]: 100% | residual activity [15]: 100% | residual activity [16]: 77.1% | residual activity [17]: 90.4% | inhibition [18]: -4.56% | residual activity [19]: 100% | residual activity [20]: 100% | residual activity [21]: 97.9% | residual activity [22]: 42% | residual activity [23]: 98.3% | residual activity [24]: 97.3% | residual activity [25]: 100% | residual activity [26]: 100% | inhibition [27]: 77.9% | residual activity [28]: 100% | residual activity [29]: 82.3% | residual activity [30]: 100% | residual activity [31]: 84.1% | residual activity [32]: 100% | residual activity [33]: 93% | residual activity [34]: 90.1% | inhibition [35]: 11.2% | residual activity [36]: 100% | residual activity [37]: 84.7% | residual activity [38]: 69.2% | residual activity [39]: 100% | inhibition [40]: 7.9% | residual activity [41]: 93% | residual activity [42]: 100% | residual activity [43]: 100% | residual activity [44]: 100% | residual activity [45]: 93.7%

Cc1cc(Nc2nccc(C)n2)cc(-c2cnc([C@@]3(O)CC[C@H](C(=O)O)C(C)(C)C3)s2)c1 [MRL-SYKi]
residual activity [1]: 100% | residual activity [2]: 100% | residual activity [3]: 92.4% | residual activity [4]: 14.7% | inhibition [5]: 33.5% | residual activity [6]: 59.3% | residual activity [7]: 99.9% | residual activity [8]: 100% | residual activity [9]: 96.3% | residual activity [10]: 87.3% | residual activity [11]: 100% | residual activity [12]: 53.9% | residual activity [13]: 100% | residual activity [14]: 100% | residual activity [15]: 100% | residual activity [16]: 100% | residual activity [17]: 61.8% | inhibition [18]: 10% | residual activity [19]: 100% | residual activity [20]: 100% | residual activity [21]: 100% | residual activity [22]: 60.9% | residual activity [23]: 73.7% | residual activity [24]: 100% | residual activity [25]: 100% | residual activity [26]: 100% | inhibition [27]: 6.38% | residual activity [28]: 100% | residual activity [29]: 100% | residual activity [30]: 100% | residual activity [31]: 66.6% | residual activity [32]: 100% | residual activity [33]: 44.7% | residual activity [34]: 100% | inhibition [35]: -4.23% | residual activity [36]: 74.6% | residual activity [37]: 97.5% | residual activity [38]: 100% | residual activity [39]: 100% | inhibition [40]: 3.23% | residual activity [41]: 61.2% | residual activity [42]: 100% | residual activity [43]: 100% | residual activity [44]: 83.3% | residual activity [45]: 99.8%
